Experimental findings from US20070293475A1, “ARYL AND HETEROARYL TETRAHYDROBENZAZEPINE DERIVATIVES AND THEIR USE FOR TREATING GLAUCOMA” (ALCON MAN[…]., priority 2006, published 2007) are described below.

In general, pEC50 refers to the negative decadic logarithm of the EC50, by convention in mol/L. As usually defined, the Emax is the greatest response seen or fitted, relative to the assay's reference.

One test has as its target T1, r5-HT2A (Rattus norvegicus, UniProt P14842).
T1 construct: endogenous in cells; host or cells: A7r5 rat vascular smooth muscle cells
The experiment in a line: r5-HT2A functional assay: FLIPR, intracellular calcium mobilization in A7r5 cells. The conditions noted are these: for pEC50: FLIPR, rat A7r5 vascular smooth muscle cells, read-out: r5-HT 2A EC50; for Emax: percentage of maximum 5-HT-induced response, A7r5 cells, read-out: r5-HT 2A (Emax). Type of test: cell-based. On the procedure:
r5-HT2A Functional Assay: FLIPR
Rat Vascular Smooth Muscle Cells
(§1) The receptor-mediated mobilization of intracellular calcium ([Ca^2+]i) was studied using the Fluorescence Imaging Plate Reader (FLIPR) instrument. Rat vascular smooth muscle cells, A7r5, were grown in a normal media of DMEM/10% FBS and 10 μg/ml gentamycin. Confluent cell monolayers were trypsinized, pelleted, and re-suspended in normal media. Cells were seeded in a 50 μL volume at a density of 20,000 cells per well in a black wall, 96-well tissue culture plate and grown for 2 days. On the day of the experiment, one vial of FLIPR Calcium Assay Kit dye was re-suspended in 50 ml of a FLIPR buffer consisting of Hank's Balanced Salt Solution (HBSS), 20 mM HEPES, and 2.5 mM probenecid, pH 7.4. Cells were loaded with the calcium-sensitive dye by addition of an equal volume (50 μl) to each well of the 96-well plate and incubated with dye for 1 h at 23° C. Typically, test compounds were stored at […] in 50% DMSO/50% Ethanol solvent. Compounds were diluted 1:50 in 20% DMSO/20% Ethanol. For dose-response experiments, compounds were diluted 1:50 in FLIPR buffer and serially diluted 1:10 to give a 5- or 8-point dose-response curve.
(§2) At the beginning of an experimental run, a signal test was performed to check the basal fluorescence signal from the dye-loaded cells and the uniformity of the signal across the plate. The basal fluorescence was adjusted between 8000-12000 counts by modifying the exposure time, the camera F-stop, or the laser power. The instrument settings for a typical assay were as follows: laser power 0.3-0.6 W, camera F-stop F/2, and exposure time 0.4 sec. An aliquot (25 μl) of the test compound was added to the existing 100 μl dye-loaded cells at a dispensing speed of 50 μl/sec. Fluorescence data were collected in real-time at 1.0 sec intervals for the first 60 sec and at 6.0 sec intervals for an additional 120 sec. Responses were measured as peak fluorescence intensity minus basal and where appropriate were expressed as a percentage of a maximum 5-HT-induced response.
For orientation: Calcium assays in cells follow changes in intracellular calcium, usually with a dye or a luminescent sensor.

For test [1], the target named is T2, recombinant rat 5-HT2C receptor (Rattus norvegicus, UniProt P08909).
T2 construct: expressed in transfected cells; host or cells: SR3T3 cells
T2 sequence (P08909 33-460): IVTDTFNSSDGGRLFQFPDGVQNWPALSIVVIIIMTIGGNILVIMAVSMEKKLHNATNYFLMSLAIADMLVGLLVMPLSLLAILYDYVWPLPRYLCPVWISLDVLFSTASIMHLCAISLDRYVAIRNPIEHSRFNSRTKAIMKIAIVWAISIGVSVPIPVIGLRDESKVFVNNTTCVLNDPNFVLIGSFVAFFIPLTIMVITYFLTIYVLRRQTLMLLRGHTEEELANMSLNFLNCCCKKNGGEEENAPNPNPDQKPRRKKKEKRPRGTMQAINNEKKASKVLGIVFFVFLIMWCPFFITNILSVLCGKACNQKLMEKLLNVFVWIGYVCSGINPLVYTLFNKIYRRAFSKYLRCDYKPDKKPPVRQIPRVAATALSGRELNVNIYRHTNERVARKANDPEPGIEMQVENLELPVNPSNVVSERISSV
Put plainly: r5-HT2C functional assay: FLIPR, SR3T3 cells. The format is cell-based. The conditions noted are these: for pEC50: FLIPR, SR3T3 cells expressing recombinant rat 5-HT2C, read-out: r5-HT 2C EC50; for Emax: SR-3T3, percentage of maximum 5-HT-induced response, SR3T3 cells, read-out: r5-HT 2C (Emax). As to the method: as §1, §2
r5-HT2C Functional Assay: FLIPR
This assay were performed as for the r5-HT2A receptor above, except that SR3T3 cells expressing the recombinant rat 5-HT2C receptor were utilized.

Test [2] deals with T3, human serotonin receptor clone 5-HT2A (Homo sapiens, UniProt P28223).
T3 construct: expressed in transfected cells; host or cells: CHO-K1 cells stably expressing aequorin and Galpha16
T3 sequence (P28223 whole entry): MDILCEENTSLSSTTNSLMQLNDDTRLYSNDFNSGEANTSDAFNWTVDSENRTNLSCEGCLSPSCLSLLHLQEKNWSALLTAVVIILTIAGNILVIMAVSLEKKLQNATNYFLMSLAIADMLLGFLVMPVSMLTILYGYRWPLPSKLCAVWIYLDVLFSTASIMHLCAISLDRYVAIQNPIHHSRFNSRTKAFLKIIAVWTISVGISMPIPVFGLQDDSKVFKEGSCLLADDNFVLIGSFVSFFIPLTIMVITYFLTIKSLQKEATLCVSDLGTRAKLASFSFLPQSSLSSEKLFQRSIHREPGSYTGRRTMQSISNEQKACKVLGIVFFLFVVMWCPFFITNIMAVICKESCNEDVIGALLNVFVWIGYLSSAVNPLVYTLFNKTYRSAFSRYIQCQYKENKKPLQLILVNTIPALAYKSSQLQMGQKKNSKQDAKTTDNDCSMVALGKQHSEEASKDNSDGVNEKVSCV
Put plainly: h5-HT2 functional assay, CHO-K1 aequorin luminescence (5-HT2A). The conditions noted are these: for Emax: CHO-K1, relative to the response of α-methyl-5-HT, read-out: h5-HT 2A (Emax); for pEC50: CHO-K1 cells, aequorin, Gα16, read-out: h5-HT 2A EC50. The format is cell-based. As to the method:
(§3) Functional response at the 5-HT2 receptor subtypes was determined using CHO-K1 cells stably expressing mitochondrially-targeted bioluminescent aequorin, Gα16, and one of either human serotonin receptor clone 5-HT2A, 5-HT2B , or 5-HT2C. Prior to testing, cells were loaded in suspension with coelenterazine for 4-16 hours and directly injected onto different concentrations of the test compound. Light emitted from the cells was measured 20-30 seconds following receptor activation. A luminometer (Hamamatsu, FDSS-6000) was used to record luminescence in response to the test compound. The mean response signal at each of 8-11 different concentrations was integrated to provide an estimation of receptor activation, expressed as the EC50 value. The efficacy of the response (Emax) at the 5-HT2A and 5-HT2B receptors is expressed relative to the response of α-methyl-5-HT under the same assay conditions while the efficacy at 5-HT2C is expressed relative to the response of 5-HT.

The target of test [3] is T4, human serotonin receptor clone 5-HT2B (Homo sapiens, UniProt P41595).
T4 construct: expressed in transfected cells; host or cells: CHO-K1 cells stably expressing aequorin and Galpha16
T4 sequence (P41595 whole entry): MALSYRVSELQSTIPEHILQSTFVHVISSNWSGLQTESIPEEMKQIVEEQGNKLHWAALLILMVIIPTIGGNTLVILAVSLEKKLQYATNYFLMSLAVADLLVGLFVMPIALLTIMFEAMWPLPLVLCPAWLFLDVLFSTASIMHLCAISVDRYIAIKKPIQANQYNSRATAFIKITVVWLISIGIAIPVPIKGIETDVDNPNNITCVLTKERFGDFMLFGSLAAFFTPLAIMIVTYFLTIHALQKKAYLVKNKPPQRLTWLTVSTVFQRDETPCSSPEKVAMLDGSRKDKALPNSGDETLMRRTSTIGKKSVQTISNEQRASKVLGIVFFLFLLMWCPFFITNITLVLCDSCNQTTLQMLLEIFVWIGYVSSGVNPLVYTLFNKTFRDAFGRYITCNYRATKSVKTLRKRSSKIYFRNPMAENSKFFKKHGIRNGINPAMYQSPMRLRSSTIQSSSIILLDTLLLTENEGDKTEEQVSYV
The experiment in a line: h5-HT2 functional assay, CHO-K1 aequorin luminescence (5-HT2B). The conditions noted are these: for Emax: CHO-K1, relative to the response of α-methyl-5-HT, read-out: h5-HT 2B (Emax); for pEC50: CHO-K1 cells, aequorin, Gα16, read-out: h5-HT 2B EC50. Type of test: cell-based. As to the method:
as §3

Test [4] deals with T5, human serotonin receptor clone 5-HT2C (Homo sapiens, UniProt P28335).
T5 construct: expressed in transfected cells; host or cells: CHO-K1 cells stably expressing aequorin and Galpha16
T5 sequence (P28335 33-458): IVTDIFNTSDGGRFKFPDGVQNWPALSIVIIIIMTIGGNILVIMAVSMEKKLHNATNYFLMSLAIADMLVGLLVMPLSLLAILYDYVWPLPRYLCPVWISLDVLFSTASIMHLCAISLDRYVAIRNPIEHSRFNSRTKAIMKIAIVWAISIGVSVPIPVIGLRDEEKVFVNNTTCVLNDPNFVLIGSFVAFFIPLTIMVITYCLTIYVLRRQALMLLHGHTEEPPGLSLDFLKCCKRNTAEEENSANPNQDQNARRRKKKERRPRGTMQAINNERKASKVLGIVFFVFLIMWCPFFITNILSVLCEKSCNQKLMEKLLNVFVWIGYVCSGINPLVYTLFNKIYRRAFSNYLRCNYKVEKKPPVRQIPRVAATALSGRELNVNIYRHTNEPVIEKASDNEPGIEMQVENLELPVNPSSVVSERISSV
Put plainly: h5-HT2 functional assay, CHO-K1 aequorin luminescence (5-HT2C). The format is cell-based. The note with it: for Emax: CHO-K1, relative to the response of 5-HT, read-out: h5-HT 2C (Emax); for pEC50: CHO-K1 cells, aequorin, Gα16, read-out: h5-HT 2C EC50. On the procedure: as §3

In test [5] the test system is Lasered (Hypertensive) Eyes of Conscious Cynomolgus Monkeys. The experiment in a line: Acute IOP response in lasered (hypertensive) eyes of conscious cynomolgus monkeys. Type of test: in vivo. The conditions noted are these: for IOP change (mmHg): value in parentheses. On the procedure:
Acute IOP Response in Lasered (Hypertensive) Eyes of Conscious Cynomolgus Monkeys
Intraocular pressure (IOP) can be determined with an Alcon Pneumatonometer after light corneal anesthesia with 0.1% proparacaine. Eyes are washed with saline after each measurement. After a baseline IOP measurement, test compound is instilled in one 30 μL aliquot to the right eyes only of nine cynomolgus monkeys. Vehicle is instilled in the right eyes of six is additional animals. Subsequent IOP measurements are taken at 1, 3, and 6 hours.
The above method was used to determine the IOP lowering efficacy of Compound 1. All eyes were pretreated with 1 drop of 0.5% proparacaine to address discomfort.

The mark [6] stands for this setting: dose 100 μg topical, 1 hr, baseline IOP 38.3 mmHg.
Where [7] appears, read: dose 100 μg topical, 3 hr, baseline IOP 38.3 mmHg.
Setting [8] is: dose 100 μg topical, 6 hr, baseline IOP 38.3 mmHg.
The mark [9] stands for this setting: dose 150 μg topical, 1 hr, baseline IOP 40.4 mmHg.
The mark [10] stands for this setting: dose 150 μg topical, 3 hr, baseline IOP 40.4 mmHg.
[11] abbreviates: dose 150 μg topical, 6 hr, baseline IOP 40.4 mmHg.

Molecules are shown by their SMILES. pEC50: −log10 of the molar value.

T1 sequence (P14842 whole entry): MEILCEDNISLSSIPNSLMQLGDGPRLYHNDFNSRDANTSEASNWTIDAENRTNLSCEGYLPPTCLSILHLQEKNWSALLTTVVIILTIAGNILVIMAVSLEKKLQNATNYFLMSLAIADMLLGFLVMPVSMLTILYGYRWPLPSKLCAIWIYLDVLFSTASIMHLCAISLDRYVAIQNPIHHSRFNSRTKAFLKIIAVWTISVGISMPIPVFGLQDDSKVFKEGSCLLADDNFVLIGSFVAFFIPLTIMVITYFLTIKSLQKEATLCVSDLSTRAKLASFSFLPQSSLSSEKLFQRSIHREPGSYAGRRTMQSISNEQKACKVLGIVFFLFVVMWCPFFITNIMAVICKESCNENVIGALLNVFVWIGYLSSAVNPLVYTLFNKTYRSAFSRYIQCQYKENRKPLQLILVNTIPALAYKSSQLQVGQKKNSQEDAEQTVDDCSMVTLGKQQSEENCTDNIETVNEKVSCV

As to `COc1cccc(Cc2ccc3c(c2)CCNCC3)c1` [Example 1, 7-(3-Methoxy-benzyl)-2,3,4,5-tetrahydro-1H-benzo[d]azepine], the pEC50 is 6.41 at r5-HT2A; 7.09 in test [1]; 8.82 in test [2]; 6.41 in test [3]; 8.96 in test [4]. In addition, the Emax is 39% at r5-HT2A; 100% in test [1]; 102% in test [2]; 87% in test [3]; 105% in test [4]. The “% IOP change” value in test [5] (setting [6]) is on record as −16.5%; in test [5] (setting [7]) it was −33.1%; in test [5] (setting [8]), −42.5%; in test [5] (setting [9]), −15.6%; in test [5] (setting [10]) it was −29.5%; in test [5] (setting [11]) it was −37.8%. The “IOP change (mmHg)” value in test [5] (setting [6]) is on record as “(6.6) mmHg”; in test [5] (setting [7]), “(13.1) mmHg”; in test [5] (setting [8]), “(16.8) mmHg”; in test [5] (setting [9]), “(6.1) mmHg”; in test [5] (setting [10]), “(12.3) mmHg”; in test [5] (setting [11]) it was “(15.6) mmHg”.
`Oc1cccc(Cc2ccc3c(c2)CCNCC3)c1` [Example 2, 3-(2,3,4,5-Tetrahydro-1H-benzo[d]azepin-7-ylmethyl)-phenol]: the pEC50 on r5-HT2A was less than 6.00; in test [1] it was 6.92; in test [2], 7.51; in test [3], 5.91; in test [4], 8.06. The Emax is 100% in test [1], 98% in test [2], 35% in test [3] and 109% in test [4].
Consider `COc1cc(Cc2ccc3c(c2)CCNCC3)cc(OC)c1` [Example 3, 7-(3,5-Dimethoxy-benzyl)-2,3,4,5-tetrahydro-1H-benzo[d]azepine], for which the pEC50 is less than 5.00 at r5-HT2A; 6.20 in test [1]; 7.77 in test [2]; less than 5.00 in test [3]; 7.70 in test [4]. Besides, the Emax in test [1] amounted to 70%; in test [2], 104%; in test [3], 6%; in test [4], 105%.
Take `COc1cccc(OCc2ccc3c(c2)CCNCC3)c1` [Example 6, 7-[(3-methoxyphenoxy)methyl]-2,3,4,5-tetrahydro-1H-3-benzazepine]: the pEC50 at r5-HT2A was 7.16; in test [1] it was 7.04; in test [2], 9.40; in test [3], 6.38; in test [4], 8.41. For the same compound, the Emax at r5-HT2A amounted to 35%; in test [1] it was 89%; in test [2], 105%; in test [3], 61%; in test [4], 107%.
Turning to `Oc1cccc(OCc2ccc3c(c2)CCNCC3)c1` [Example 7, 3-(2,3,4,5-tetrahydro-1H-3-benzazepin-7-ylmethoxy)phenol], on r5-HT2A, the pEC50 was 6.36 and the maximum response (Emax) is 40%. Moreover, in test [1], the pEC50 is 7.19 and the maximal effect (Emax) came out at 92%.
Regarding `COc1cccc(COc2cc3c(cc2C)CCNCC3)c1` [Example 8, 7-[(3-methoxybenzyl)oxy]-8-methyl-2,3,4,5-tetrahydro-1H-3-benzazepine], the pEC50 is 5.72 on r5-HT2A; 6.60 in test [1]; 8.62 in test [2]; 6.64 in test [3]; 8.35 in test [4]. Also, the Emax at r5-HT2A came out at 48%; in test [1], 102%; in test [2], 102%; in test [3], 63%; in test [4], 101%.
